From patent US20220330549A1, “USE OF N-BENZYLBENZAMIDE-BASED COMPOUND AS HERBICIDE” (Northwest A&F University, priority 2020, published 2022)

Experiments:
Type in all cases: in vivo
Piemarker [1] = experiment: Herbicidal activity test for indoor pre-emergence soil treatment; design: key: level 1-9; higher = more weed remaining vs blank control; settings: 150 g a.i./ha, visual inspection 21 days after treatment
Protocol: (§1) The herbicidal activity test for indoor pre-emergence soil treatment was performed with some of the N-benzylbenzamide-based compounds of general formula I or II with reference to the method of NY/T 1155.3-2006. Neutral sandy loam soil having an organic content of ≤2% was added to fill ⅘ of the pot, and the soil was completely moistened by infiltrating irrigation from the bottom of the pot. The seeds of the test weed were evenly spread on the soil surface, and then covered by 0.5 cm to 2.0 cm of soil depending on the seed size. Representative compounds in the examples were used to prepare emulsifiable concentrates (10%), and spray treatments to the soil were performed 24 hours after the sowing with the test agents diluted with water, at a spraying dosage of 150 g(a.i.)/ha. Then, the results were investigated by visual inspection 21 days after the treatments. The herbicidal activity of the agent was evaluated on a scale of 1-9 levels according to the symptoms and severity of damage to the test weeds.
(§2) Level 2: equivalent to 0 to 2.5% of the weed in the blank control area;
(§3) Level 3: equivalent to 2.6 to 5% of the weed in the blank control area;
(§4) Level 4: equivalent to 5.1 to 10% of the weed in the blank control area;
(§5) Level 5: equivalent to 10.1 to 15% of the weed in the blank control area;
(§6) Level 6: equivalent to 15.1 to 25% of the weed in the blank control area;
(§7) Level 7: equivalent to 25.1 to 35% of the weed in the blank control area;
(§8) Level 8: equivalent to 35.1 to 67.5% of the weed in the blank control area; and
(§9) Level 9: equivalent to 67.6 to 100% of the weed in the blank control area.

Barnyard grass [2] = experiment: as above; design: key: level 1-9; higher = more weed remaining vs blank control; settings: 150 g a.i./ha, visual inspection 21 days after treatment
Protocol: as §1, §2, §3, §4, §5, §6, §7, §8, §9

green bristlegrass [3] = experiment: as above; design: key: level 1-9; higher = more weed remaining vs blank control; settings: 150 g a.i./ha, visual inspection 21 days after treatment
Protocol: as §1, §2, §3, §4, §5, §6, §7, §8, §9

Piemarker [4] = experiment: Herbicidal activity test for indoor post-emergence spraying on stems and leaves; design: key: grade level by weed remaining vs blank control, e.g. 5 = 10.1-15%; settings: 150 g a.i./ha, visual inspection 21 days after treatment
Protocol: (§10) The post-emergence herbicidal activity test was performed with some of the N-benzylbenzamide-based compounds of general formula I or II with reference to the method of NY/T 1155.4-2006. […] After the sowing, the weed was moved to a greenhouse for regular cultivation. […] Then, the results were investigated by visual inspection 21 days after the treatments. […] Level 5: equivalent to 10.1 to 15% of the weed in the blank control area; Level 6: equivalent to 15.1 to 25% of the weed in the blank control area; Level 7: equivalent to 25.1 to 35% of the weed in the blank control area; Level 8: equivalent to 35.1 to 67.5% of the weed in the blank control area; and […]

Barnyard grass [5] = experiment: as above; design: key: grade level by weed remaining vs blank control, e.g. 5 = 10.1-15%; settings: 150 g a.i./ha, visual inspection 21 days after treatment
Protocol: as §10

green bristlegrass [6] = experiment: as above; design: key: grade level by weed remaining vs blank control, e.g. 5 = 10.1-15%; settings: 150 g a.i./ha, visual inspection 21 days after treatment
Protocol: as §10

Digitaria sanguinalis [7] = experiment: as above; design: key: grade level by weed remaining vs blank control, e.g. 5 = 10.1-15%; settings: 150 g a.i./ha, visual inspection 21 days after treatment
Protocol: as §10

Humulus scandens [8] = experiment: as above; design: key: grade level by weed remaining vs blank control, e.g. 5 = 10.1-15%; settings: 150 g a.i./ha, visual inspection 21 days after treatment
Protocol: as §10

Amaranthus retroflexus [9] = experiment: as above; design: key: grade level by weed remaining vs blank control, e.g. 5 = 10.1-15%; settings: 150 g a.i./ha, visual inspection 21 days after treatment
Protocol: as §10

nutgrass flatsedge = experiment: Field test for weed control in a corn field; settings: 150 g a.i./ha, after treatment
Protocol: (§11) The weed control efficacy field test was performed in a corn field with some of the N-benzylbenzamide-based compounds of general formula I or II with reference to the method of GB/T 17980.42-2000. […] Spray treatments were performed in the stage where 2 leaves to 5 leaves were grown for the corns after the sowing. Representative compounds in the examples were used to prepare emulsifiable concentrates (10%), and spray treatments were performed with the concentrates in water at a dosage of 150 g(a.i.)/ha, and repeated 4 times for each treatment, and the area was 20 m^2. Oil dispersion with 25% of mesotrione was used as a control agent and applied at a dosage of 150 g(a.i.)/h. […] The herbicidal activities of the agents were evaluated on a scale of 1-9 levels according to the symptoms and severity of damage to the test weeds.
as §2, §3, §4, §5, §6, §7, §8, §9

Acalypha australis = experiment: Field test for weed control in a corn field; settings: 150 g a.i./ha, after treatment
Protocol: as §11, §2, §3, §4, §5, §6, §7, §8, §9

Chenopodium album = experiment: Field test for weed control in a corn field; settings: 150 g a.i./ha, after treatment
Protocol: as §11, §2, §3, §4, §5, §6, §7, §8, §9

goosegrass = experiment: Field test for weed control in a corn field; settings: 150 g a.i./ha, after treatment
Protocol: as §11, §2, §3, §4, §5, §6, §7, §8, §9

Barnyard grass [10] = experiment: Field test for weed control in a corn field; settings: 150 g a.i./ha, 30 days after treatment
Protocol: as §11, §2, §3, §4, §5, §6, §7, §8, §9

green bristlegrass [11] = experiment: Field test for weed control in a corn field; settings: 150 g a.i./ha, after treatment
Protocol: as §11, §2, §3, §4, §5, §6, §7, §8, §9

Digitaria sanguinalis [12] = experiment: Field test for weed control in a corn field; settings: 150 g a.i./ha, after treatment
Protocol: as §11, §2, §3, §4, §5, §6, §7, §8, §9

Portulaca oleracea = experiment: Field test for weed control in a corn field; settings: 150 g a.i./ha, after treatment
Protocol: as §11, §2, §3, §4, §5, §6, §7, §8, §9

Convolvulus arvensis = experiment: Field test for weed control in a corn field; settings: 150 g a.i./ha, after treatment
Protocol: as §11, §2, §3, §4, §5, §6, §7, §8, §9

Solanum nigrum = experiment: Field test for weed control in a corn field; settings: 150 g a.i./ha, 30 days after treatment
Protocol: as §11, §2, §3, §4, §5, §6, §7, §8, §9

Amaranthus retroflexus [13] = experiment: Field test for weed control in a corn field; settings: 150 g a.i./ha, 30 days after treatment
Protocol: as §11, §2, §3, §4, §5, §6, §7, §8, §9

Digitaria sanguinalis [14] = experiment: Herbicidal activity test for indoor pre-emergence soil treatment; design: key: 1-9 levels; higher = more weed remaining vs blank control; settings: 150 g a.i./ha, visual inspection 21 days after treatment
Protocol: as §1, §2, §3, §4, §5, §6, §7, §8, §9

Amaranthus retroflexus [15] = experiment: as above; design: key: 1-9 levels; higher = more weed remaining vs blank control; settings: 150 g a.i./ha, visual inspection 21 days after treatment
Protocol: as §1, §2, §3, §4, §5, §6, §7, §8, §9

Gramineae = experiment: Post-emergence herbicidal activity test in a paddy field; design: key: level scale; higher level = more weed left vs blank control; settings: 150 g a.i./ha (penoxsulam control 250 g(a.i.)/h)
Protocol: (§12) The post-emergence herbicidal activity test was performed in a paddy field with some of the N-benzylbenzamide-based compounds of general formula I or II with reference to the method of GB/T 17980.40-2000. […] Spray treatments were performed in the stage where 4 leaves to 5 leaves were grown for the rice seedlings which was about 1 month after the sowing. Representative compounds in the examples were used to prepare emulsifiable concentrates (10%), and spray treatments were performed with the concentrates in water at a dosage of 150 g(a.i.)/ha, and repeated 4 times for each treatment, and the area was 50 m^2. 25 g/L of penoxsulam suspension was used as a control agent and applied at a dosage of 250 g(a.i.)/h. The results were investigated by a value estimating survey method 15 days and 30 days after the treatments. The relative weed population quantities were estimated by comparing each agent treated area with an adjacent blank control area, and the results of which were investigated with the following grading standard method using the overall coverage of the weed population as an indicator.
as §2, §3, §4, §5, §6, §7, §8, §9

Cyperaceae = experiment: as above; design: key: level scale; higher level = more weed left vs blank control; settings: 150 g a.i./ha (penoxsulam control 250 g(a.i.)/h)
Protocol: as §12, §2, §3, §4, §5, §6, §7, §8, §9

Broadleaf weed = experiment: as above; design: key: level scale; higher level = more weed left vs blank control; settings: 150 g a.i./ha (penoxsulam control 250 g(a.i.)/h)
Protocol: as §12, §2, §3, §4, §5, §6, §7, §8, §9

Humulus scandens [16] = experiment: Herbicidal activity test for indoor pre-emergence soil treatment; settings: 150 g a.i./ha, visual inspection 21 days after treatment
Protocol: as §1, §2, §3, §4, §5, §6, §7, §8, §9

SMILES	Herbicidal Activity Piemarker (Piemarker [1])	Herbicidal Activity Barnyard grass (Barnyard grass [2])	Herbicidal Activity Green bristlegrass (green bristlegrass [3])	Herbicidal Activity Piemarker (Piemarker [4])	Herbicidal Activity Barnyard grass (Barnyard grass [5])	Herbicidal Activity Green bristlegrass (green bristlegrass [6])	Herbicidal Activity Digitaria sanguinalis (Digitaria sanguinalis [7])	Herbicidal Activity Humulus scandens (Humulus scandens [8])	Herbicidal Activity Amaranthus retroflexus (Amaranthus retroflexus [9])	Post-emergence weed control effect, Nutgrass flatsedge (nutgrass flatsedge)	Post-emergence weed control effect, Acalypha australis (Acalypha australis)	Post-emergence weed control effect, Chenopodium album (Chenopodium album)	Post-emergence weed control effect, Goose grass (goosegrass)	Post-emergence weed control effect, Barnyard grass (Barnyard grass [10])	Post-emergence weed control effect, Green bristlegrass (green bristlegrass [11])	Post-emergence weed control effect, Digitaria sanguinalis (Digitaria sanguinalis [12])	Post-emergence weed control effect, Portulaca oleracea (Portulaca oleracea)	Post-emergence weed control effect, Convolvulus arvensis (Convolvulus arvensis)	Post-emergence weed control effect, Solanum nigrum (Solanum nigrum)	Post-emergence weed control effect, Amaranthus retroflexus (Amaranthus retroflexus [13])	also measured
COc1ccccc1C(=O)NCc1cc(F)cc(F)c1 [Compound A03, N-(3,5 difluorobenzyl)-2-methoxybenzamide]	1	1	1	1	1	1	2 (equivalent to 0 to 2.5% of the weed in the blank control area)	1	1	2 (equivalent to 0 to 2.5% of the weed in the blank control area)	2 (equivalent to 0 to 2.5% of the weed in the blank control area)	1	2 (equivalent to 0 to 2.5% of the weed in the blank control area)	1	2 (equivalent to 0 to 2.5% of the weed in the blank control area)	1	1	1	1	1	Herbicidal Activity Digitaria sanguinalis (Digitaria sanguinalis [14]): 2 (equivalent to 0 to 2.5% of the weed in the blank control area); Herbicidal Activity Amaranthus retroflexus (Amaranthus retroflexus [15]): 1; Herbicidal activity 15 days after treatment Gramineae (Gramineae): 2 (equivalent to 0 to 2.5% of the weed in the blank control area); Herbicidal activity 30 days after treatment Gramineae (Gramineae): 1; Herbicidal activity 15 days after treatment Cyperaceae (Cyperaceae): 2 (equivalent to 0 to 2.5% of the weed in the blank control area); Herbicidal activity 30 days after treatment Cyperaceae (Cyperaceae): 1; Herbicidal activity 15 days after treatment Broadleaf weed (Broadleaf weed): 1; Herbicidal activity 30 days after treatment Broadleaf weed (Broadleaf weed): 2 (equivalent to 0 to 2.5% of the weed in the blank control area); Herbicidal Activity Humulus scandens (Humulus scandens [16]): 2 (equivalent to 0 to 2.5% of the weed in the blank control area)
CS(=O)(=O)c1cc(C(F)(F)F)ccc1C(=O)c1cnoc1C1CC1 [Isoxaflutole, reference compound]	1	1	1	–	–	–	–	–	–	–	–	–	–	–	–	–	–	–	–	–	Herbicidal Activity Digitaria sanguinalis (Digitaria sanguinalis [14]): 1; Herbicidal Activity Amaranthus retroflexus (Amaranthus retroflexus [15]): 1; Herbicidal Activity Humulus scandens (Humulus scandens [16]): 1
COc1cnc(OC)n2nc(NS(=O)(=O)c3c(OCC(F)F)cccc3C(F)(F)F)nc12 [Penoxsulam, reference compound]	–	–	–	–	–	–	–	–	–	–	–	–	–	–	–	–	–	–	–	–	Herbicidal activity 15 days after treatment Gramineae (Gramineae): 2 (equivalent to 0 to 2.5% of the weed in the blank control area); Herbicidal activity 30 days after treatment Gramineae (Gramineae): 1; Herbicidal activity 15 days after treatment Cyperaceae (Cyperaceae): 2 (equivalent to 0 to 2.5% of the weed in the blank control area); Herbicidal activity 30 days after treatment Cyperaceae (Cyperaceae): 2 (equivalent to 0 to 2.5% of the weed in the blank control area); Herbicidal activity 15 days after treatment Broadleaf weed (Broadleaf weed): 2 (equivalent to 0 to 2.5% of the weed in the blank control area); Herbicidal activity 30 days after treatment Broadleaf weed (Broadleaf weed): 1
CS(=O)(=O)c1ccc(C(=O)C2C(=O)CCCC2=O)c([N+](=O)[O-])c1 [Mesotrione, reference compound]	–	–	–	1	1	1	1	1	1	1	2 (equivalent to 0 to 2.5% of the weed in the blank control area)	1	2 (equivalent to 0 to 2.5% of the weed in the blank control area)	1	1	2 (equivalent to 0 to 2.5% of the weed in the blank control area)	1	1	1	1	–
